Data as given in patent US20220388964A1 (HiberCell, Inc., priority 2019, published 2022).
pIC50: −log10 of the molar value.

Each molecule was assayed against GCN2 (Homo sapiens, UniProt Q9P2K8) (assay: TR-FRET biochemical assay for inhibition of GCN2 (Example 108, for Examples 73-105)).
GCN2, sequence (Q9P2K8 whole entry): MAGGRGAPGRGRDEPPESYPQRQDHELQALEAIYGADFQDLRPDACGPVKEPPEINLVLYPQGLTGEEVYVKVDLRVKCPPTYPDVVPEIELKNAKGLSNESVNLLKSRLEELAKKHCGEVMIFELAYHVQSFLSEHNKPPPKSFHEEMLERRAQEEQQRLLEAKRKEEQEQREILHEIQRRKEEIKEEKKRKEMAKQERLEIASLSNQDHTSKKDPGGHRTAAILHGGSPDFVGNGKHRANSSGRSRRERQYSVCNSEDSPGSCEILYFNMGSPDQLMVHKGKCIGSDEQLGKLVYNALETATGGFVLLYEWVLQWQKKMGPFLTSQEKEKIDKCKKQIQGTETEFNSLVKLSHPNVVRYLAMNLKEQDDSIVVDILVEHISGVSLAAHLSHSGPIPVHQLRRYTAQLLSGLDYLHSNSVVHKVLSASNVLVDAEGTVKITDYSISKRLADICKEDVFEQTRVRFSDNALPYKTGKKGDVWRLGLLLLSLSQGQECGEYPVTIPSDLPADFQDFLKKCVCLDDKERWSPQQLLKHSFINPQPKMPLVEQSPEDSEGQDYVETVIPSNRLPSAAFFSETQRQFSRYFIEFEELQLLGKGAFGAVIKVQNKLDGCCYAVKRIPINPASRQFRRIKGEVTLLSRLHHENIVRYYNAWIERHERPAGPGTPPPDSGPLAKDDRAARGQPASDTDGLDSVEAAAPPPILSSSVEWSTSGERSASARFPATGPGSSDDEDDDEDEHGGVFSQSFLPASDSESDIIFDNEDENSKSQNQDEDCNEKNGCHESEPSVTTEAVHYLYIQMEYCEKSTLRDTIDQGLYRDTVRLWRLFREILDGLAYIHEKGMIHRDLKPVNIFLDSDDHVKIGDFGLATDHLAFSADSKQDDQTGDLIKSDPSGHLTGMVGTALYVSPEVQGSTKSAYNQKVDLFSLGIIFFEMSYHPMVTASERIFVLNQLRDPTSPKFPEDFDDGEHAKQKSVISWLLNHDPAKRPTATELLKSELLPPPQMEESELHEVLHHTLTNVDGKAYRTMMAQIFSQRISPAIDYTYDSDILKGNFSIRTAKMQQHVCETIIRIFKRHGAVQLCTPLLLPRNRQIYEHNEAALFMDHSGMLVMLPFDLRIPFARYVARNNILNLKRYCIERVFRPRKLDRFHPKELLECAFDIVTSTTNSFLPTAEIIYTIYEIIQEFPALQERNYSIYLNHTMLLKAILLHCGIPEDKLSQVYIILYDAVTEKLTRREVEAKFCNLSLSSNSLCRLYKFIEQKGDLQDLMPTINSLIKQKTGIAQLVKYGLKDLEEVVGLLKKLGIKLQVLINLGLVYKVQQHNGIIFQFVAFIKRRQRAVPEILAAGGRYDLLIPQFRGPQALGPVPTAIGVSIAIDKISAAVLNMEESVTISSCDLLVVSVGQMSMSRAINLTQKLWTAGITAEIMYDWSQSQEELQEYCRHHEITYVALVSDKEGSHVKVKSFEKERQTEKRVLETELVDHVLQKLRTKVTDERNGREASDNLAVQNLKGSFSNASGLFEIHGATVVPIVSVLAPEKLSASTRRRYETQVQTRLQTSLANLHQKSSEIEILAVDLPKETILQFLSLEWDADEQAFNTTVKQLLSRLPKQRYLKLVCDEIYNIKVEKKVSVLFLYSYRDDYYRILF

pIC50, > 6.30:
COc1ncc(Cl)cc1S(=O)(=O)Nc1ccc(F)c(-c2ccc3c(C(=O)NCC(F)(F)F)n[nH]c3c2F)c1F [Example 90, 6-[3-(5-Chloro-2-methoxypyridine-3-sulfonamido)-2,6-difluorophenyl]-7-fluoro-N-(2,2,2-trifluoroethyl)-1H-indazole-3-carboxamide]
COc1ncc(Cl)cc1S(=O)(=O)Nc1ccc(F)c(-c2ccc3c(C(=O)NCCS(C)(=O)=O)n[nH]c3c2F)c1F [Example 84, 6-[3-(5-Chloro-2-methoxypyridine-3-sulfonamido)-2,6-difluorophenyl]-7-fluoro-N-(2-methanesulfonylethyl)-1H-indazole-3-carboxamide]
COc1ncc(Cl)cc1S(=O)(=O)Nc1ccc(F)c(-c2ccc3c(C(=O)NCCN4CCCC4)n[nH]c3c2F)c1F [Example 83, 6-[3-(5-chloro-2-methoxypyridine-3-sulfonamido)-2,6-difluorophenyl]-7-fluoro-N-[2-(pyrrolidin-1-yl)ethyl]-1H-indazole-3-carboxamide]
COc1ncc(Cl)cc1S(=O)(=O)Nc1ccc(F)c(-c2ccc3c(C(=O)NCCN4CCCC4=O)n[nH]c3c2F)c1F [Example 99, 6-[3-(5-Chloro-2-methoxypyridine-3-sulfonamido)-2,6-difluorophenyl]-7-fluoro-N-[2-(2-oxopyrrolidin-1-yl)ethyl]-1H-indazole-3-carboxamide]
COc1ncc(Cl)cc1S(=O)(=O)Nc1ccc(F)c(-c2ccc3c(C(=O)NC4CCC(=O)CC4)n[nH]c3c2F)c1F [Example 96, 6-[3-(5-Chloro-2-methoxypyridine-3-sulfonamido)-2,6-difluorophenyl]-7-fluoro-N-(4-oxocyclohexyl)-1H-indazole-3-carboxamide]
COc1ncc(Cl)cc1S(=O)(=O)Nc1ccc(F)c(-c2ccc3c(C(=O)NC4CCCCC4O)n[nH]c3c2F)c1F (stereo not drawn) [Example 88, 6-[3-(5-Chloro-2-methoxypyridine-3-sulfonamido)-2,6-difluorophenyl]-7-fluoro-N-(2-hydroxycyclohexyl)-1H-indazole-3-carboxamide]
